Measurements published in patent US20180125842A1, “Ergoloid for Cancer” (priority 2016, published 2018).

System: splenic lymphoma
Assay: Clinical use in splenic lymphoma
Type: in vivo, human
Details: before addition of Ergoloid

Rituxan: an immunotherapy
disease course on Rituxan alone: gradually allowing progression
